pIC50: −log10 of the molar value.
Key:
[1] = target: T1, Tyrosine-protein kinase JAK2 (Homo sapiens, UniProt O60674); experiment: Inhibition of JAK2 using biotin-EQEDEPEGDYFEWLE- NH2 as substrate
[2] = Selectivity ratio of IC50 for JAK3 to IC50 for JAK2
CYP2C9 = CYP2C9 (Homo sapiens, UniProt P11712); experiment: Inhibition of CYP2C9 at 10 uM; type: ADME
[3] = target: T1, Tyrosine-protein kinase JAK2; experiment: Inhibition of JAK2-mediated STAT5 phosphorylation in human HEL 92.1.7 irf1-bla cells; type: cell-based
[4] = Clearance in rat at 1 mg/kg, iv; type: ADME, organism-based; design: dose 1 mg/kg, route intravenous; conditions: in vivo
[5] = target: Voltage-gated inwardly rectifying potassium channel KCNH2 (Homo sapiens, UniProt Q12809); experiment: Inhibition of human hERG
CYP3A4 = CYP3A4 (Homo sapiens, UniProt P08684); experiment: Inhibition of CYP3A4 at 10 uM; type: ADME
[6] = target: T2, Tyrosine-protein kinase JAK3 (Homo sapiens, UniProt P52333); experiment: Inhibition of JAK3 using biotin-EQEDEPEGDYFEWLE- NH2 as substrate
T2 sequence (P52333 whole entry): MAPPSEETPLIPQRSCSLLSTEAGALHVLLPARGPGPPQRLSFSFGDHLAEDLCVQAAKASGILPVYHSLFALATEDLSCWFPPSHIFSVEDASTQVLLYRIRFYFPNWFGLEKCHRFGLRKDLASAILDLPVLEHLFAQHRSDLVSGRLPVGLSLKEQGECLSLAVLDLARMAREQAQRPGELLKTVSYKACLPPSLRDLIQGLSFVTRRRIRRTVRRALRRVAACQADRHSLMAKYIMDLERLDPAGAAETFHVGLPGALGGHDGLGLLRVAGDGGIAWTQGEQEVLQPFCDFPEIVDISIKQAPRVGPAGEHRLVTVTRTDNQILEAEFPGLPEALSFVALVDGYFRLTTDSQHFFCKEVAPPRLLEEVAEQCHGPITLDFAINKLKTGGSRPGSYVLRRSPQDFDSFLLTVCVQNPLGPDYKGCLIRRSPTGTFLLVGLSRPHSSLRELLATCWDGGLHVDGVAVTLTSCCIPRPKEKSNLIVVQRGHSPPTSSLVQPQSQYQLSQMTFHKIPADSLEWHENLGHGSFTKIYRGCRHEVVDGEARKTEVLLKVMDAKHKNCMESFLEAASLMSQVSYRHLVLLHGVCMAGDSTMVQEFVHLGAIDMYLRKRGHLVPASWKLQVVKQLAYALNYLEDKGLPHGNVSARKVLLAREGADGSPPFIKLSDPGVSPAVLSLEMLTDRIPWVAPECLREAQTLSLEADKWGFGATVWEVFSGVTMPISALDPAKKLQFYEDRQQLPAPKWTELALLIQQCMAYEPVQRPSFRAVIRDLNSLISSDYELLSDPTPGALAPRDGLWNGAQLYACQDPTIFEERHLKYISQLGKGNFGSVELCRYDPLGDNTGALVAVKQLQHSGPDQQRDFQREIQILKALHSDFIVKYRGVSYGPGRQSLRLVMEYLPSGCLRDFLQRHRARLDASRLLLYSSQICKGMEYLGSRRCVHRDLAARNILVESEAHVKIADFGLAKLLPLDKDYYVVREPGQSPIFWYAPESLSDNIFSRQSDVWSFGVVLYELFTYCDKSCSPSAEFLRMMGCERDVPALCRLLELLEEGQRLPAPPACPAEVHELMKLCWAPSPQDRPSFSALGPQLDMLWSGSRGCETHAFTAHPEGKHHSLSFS

T1 sequence (O60674 whole entry): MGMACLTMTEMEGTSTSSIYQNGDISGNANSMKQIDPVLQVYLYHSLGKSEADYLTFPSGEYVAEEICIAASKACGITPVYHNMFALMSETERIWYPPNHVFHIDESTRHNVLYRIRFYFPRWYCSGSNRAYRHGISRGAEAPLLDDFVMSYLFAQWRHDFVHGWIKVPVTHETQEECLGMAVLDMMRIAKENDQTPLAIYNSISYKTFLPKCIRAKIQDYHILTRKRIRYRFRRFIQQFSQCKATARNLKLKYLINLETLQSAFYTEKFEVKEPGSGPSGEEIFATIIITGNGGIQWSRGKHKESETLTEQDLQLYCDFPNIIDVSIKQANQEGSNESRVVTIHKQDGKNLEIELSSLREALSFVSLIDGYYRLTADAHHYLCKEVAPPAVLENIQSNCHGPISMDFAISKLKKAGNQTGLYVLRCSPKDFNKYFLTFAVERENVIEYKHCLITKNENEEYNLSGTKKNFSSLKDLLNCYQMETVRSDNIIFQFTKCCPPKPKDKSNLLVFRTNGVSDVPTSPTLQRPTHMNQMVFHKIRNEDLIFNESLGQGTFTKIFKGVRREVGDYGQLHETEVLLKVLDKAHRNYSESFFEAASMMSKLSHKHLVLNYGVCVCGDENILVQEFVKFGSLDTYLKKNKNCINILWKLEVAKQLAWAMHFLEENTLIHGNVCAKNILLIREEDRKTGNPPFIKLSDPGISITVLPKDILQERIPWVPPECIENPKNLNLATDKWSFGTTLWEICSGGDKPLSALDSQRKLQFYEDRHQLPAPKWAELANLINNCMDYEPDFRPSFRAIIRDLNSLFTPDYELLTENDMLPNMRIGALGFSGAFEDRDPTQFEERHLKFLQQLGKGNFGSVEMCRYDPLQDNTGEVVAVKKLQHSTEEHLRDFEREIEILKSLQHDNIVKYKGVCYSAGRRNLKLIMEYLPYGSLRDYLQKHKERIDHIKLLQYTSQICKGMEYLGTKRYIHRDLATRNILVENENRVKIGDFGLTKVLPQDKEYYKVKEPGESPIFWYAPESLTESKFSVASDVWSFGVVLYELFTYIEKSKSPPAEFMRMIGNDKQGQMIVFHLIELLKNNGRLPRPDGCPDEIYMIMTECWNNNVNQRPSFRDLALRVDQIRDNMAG
Sequence of CYP3A4 (P08684 whole entry): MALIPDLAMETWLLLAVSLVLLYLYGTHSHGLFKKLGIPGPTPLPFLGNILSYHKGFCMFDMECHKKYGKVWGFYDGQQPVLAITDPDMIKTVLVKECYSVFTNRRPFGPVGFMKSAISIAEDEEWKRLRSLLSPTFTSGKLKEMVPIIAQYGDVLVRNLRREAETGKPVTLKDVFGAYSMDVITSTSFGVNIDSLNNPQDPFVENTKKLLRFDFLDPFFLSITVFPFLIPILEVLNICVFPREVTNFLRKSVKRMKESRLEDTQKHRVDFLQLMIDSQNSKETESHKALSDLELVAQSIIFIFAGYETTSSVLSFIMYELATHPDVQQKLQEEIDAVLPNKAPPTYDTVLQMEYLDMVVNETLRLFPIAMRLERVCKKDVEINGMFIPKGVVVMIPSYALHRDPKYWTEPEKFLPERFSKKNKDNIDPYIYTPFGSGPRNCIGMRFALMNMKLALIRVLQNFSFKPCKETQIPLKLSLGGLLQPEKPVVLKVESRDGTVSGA
Sequence of Voltage-gated inwardly rectifying potassium channel KCNH2 (Q12809 whole entry): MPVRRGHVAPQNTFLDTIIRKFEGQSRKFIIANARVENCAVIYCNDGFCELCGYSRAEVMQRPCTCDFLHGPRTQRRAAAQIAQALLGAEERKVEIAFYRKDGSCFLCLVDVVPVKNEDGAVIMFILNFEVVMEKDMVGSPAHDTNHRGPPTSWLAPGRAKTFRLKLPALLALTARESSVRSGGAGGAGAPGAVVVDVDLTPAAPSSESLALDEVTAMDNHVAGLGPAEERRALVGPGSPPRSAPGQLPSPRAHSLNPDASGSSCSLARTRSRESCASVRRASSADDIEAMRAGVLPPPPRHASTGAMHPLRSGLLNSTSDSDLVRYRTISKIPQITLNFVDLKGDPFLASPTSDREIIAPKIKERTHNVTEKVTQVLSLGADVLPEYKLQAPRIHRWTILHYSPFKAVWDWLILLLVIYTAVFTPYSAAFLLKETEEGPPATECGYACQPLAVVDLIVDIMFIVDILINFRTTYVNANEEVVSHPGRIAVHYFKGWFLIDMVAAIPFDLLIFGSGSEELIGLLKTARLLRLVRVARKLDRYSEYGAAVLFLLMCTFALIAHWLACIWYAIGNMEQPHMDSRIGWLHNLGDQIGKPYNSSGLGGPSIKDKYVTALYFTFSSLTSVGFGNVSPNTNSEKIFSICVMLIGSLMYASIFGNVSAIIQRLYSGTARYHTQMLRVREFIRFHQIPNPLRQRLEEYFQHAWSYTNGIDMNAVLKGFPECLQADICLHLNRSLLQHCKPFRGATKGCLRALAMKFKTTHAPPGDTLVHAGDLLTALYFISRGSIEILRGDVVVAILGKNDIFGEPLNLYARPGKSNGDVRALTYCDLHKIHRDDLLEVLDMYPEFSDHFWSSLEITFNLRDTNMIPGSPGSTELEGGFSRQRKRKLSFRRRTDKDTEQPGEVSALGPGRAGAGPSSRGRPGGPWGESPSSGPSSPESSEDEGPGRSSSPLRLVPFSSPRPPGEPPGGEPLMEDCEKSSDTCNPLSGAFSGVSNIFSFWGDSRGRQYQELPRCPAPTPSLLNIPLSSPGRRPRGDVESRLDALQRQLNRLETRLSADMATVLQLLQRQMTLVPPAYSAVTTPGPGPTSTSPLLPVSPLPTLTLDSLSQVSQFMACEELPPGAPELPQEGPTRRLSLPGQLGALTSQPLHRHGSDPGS
Sequence of CYP2C9 (P11712 whole entry): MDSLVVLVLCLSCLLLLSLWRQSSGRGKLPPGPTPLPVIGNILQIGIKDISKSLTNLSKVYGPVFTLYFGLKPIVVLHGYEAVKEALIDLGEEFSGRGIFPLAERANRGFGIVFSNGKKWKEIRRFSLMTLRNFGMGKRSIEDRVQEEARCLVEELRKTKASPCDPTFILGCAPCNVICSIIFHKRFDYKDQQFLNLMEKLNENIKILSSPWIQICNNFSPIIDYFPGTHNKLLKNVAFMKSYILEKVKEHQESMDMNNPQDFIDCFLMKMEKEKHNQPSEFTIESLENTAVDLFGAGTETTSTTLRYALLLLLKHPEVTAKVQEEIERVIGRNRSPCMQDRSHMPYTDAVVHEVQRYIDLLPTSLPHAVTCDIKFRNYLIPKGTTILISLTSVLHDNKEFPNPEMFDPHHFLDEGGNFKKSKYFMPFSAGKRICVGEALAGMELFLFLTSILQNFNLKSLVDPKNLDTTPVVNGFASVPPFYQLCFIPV

SMILES | pIC50 [1] | Ratio IC50 [2] | inhibition at 10 µM (CYP2C9) | pIC50 [3] | clearance [4] | pIC50 [5] | inhibition at 10 µM (CYP3A4) | pIC50 [6]
NC(=O)c1cnc(NC2CCCCC2)c2c1[nH]c1ccc(F)cc12 | 7.77 | > 50 | – | – | – | – | – | –
C[C@H](Nc1ncc(C(N)=O)c2[nH]c3ccc(F)cc3c12)C(C)(C)C | 7.28 | > 50 | – | – | – | – | – | –
NC(=O)c1cnc(N[C@H](C2CC2)C(F)(F)F)c2c1[nH]c1cc(-c3ccc(N)nc3)ccc12 | 8.70 | > 50 | 41% | 7.21 | 6 mL/min/kg | 6.12 | 65% | 6.43
NC(=O)c1cnc(N[C@H](C2CC2)C(F)(F)F)c2c1[nH]c1cc(-c3cnc(N4CCOCC4)nc3)ccc12 | 8.10 | > 50 | – | 6.28 | 15 mL/min/kg | – | – | 6.37
NC(=O)c1cnc(NC2CCOCC2)c2c1[nH]c1ccc(F)cc12 | 7.74 | > 50 | – | – | – | – | – | –
Cn1cc(-c2ccc3c(c2)[nH]c2c(C(N)=O)cnc(N[C@H](C4CCC4)C(F)(F)F)c23)cn1 | 7.92 | > 50 | – | 6.46 | – | – | – | 5.77
NC(=O)c1cnc(NC(C2CC2)C2CC2)c2c1[nH]c1cc(-c3cnc(N)cn3)ccc12 | 8.40 | > 50 | 46% | 7.00 | – | 6.14 | 65% | 6.19
CC(C)Cn1cc(-c2ccc3c(c2)[nH]c2c(C(N)=O)cnc(N[C@@H](C)C(C)(C)C)c23)cn1 | 7.39 | > 50 | – | – | – | – | – | –
C[C@@H](Nc1ncc(C(N)=O)c2[nH]c3cc(-c4cnn(C)c4)ccc3c12)C1CC1 | 7.96 | > 50 | – | 7.10 | – | – | – | 6.13
Cn1cc(-c2ccc3c(c2)[nH]c2c(C(N)=O)cnc(NC4CCCCC4)c23)cn1 | 8.30 | > 50 | – | – | – | 6.21 | 75% | –
C[C@H](Nc1ncc(C(N)=O)c2[nH]c3cc(-c4ccc(Cl)nn4)ccc3c12)C(C)(C)C | 7.85 | > 50 | – | – | – | – | – | –
NC(=O)c1cnc(NC(C2CC2)C2CC2)c2c1[nH]c1cc(-c3cn[nH]c3)ccc12 | 8.52 | – | 80% | 7.40 | 31 mL/min/kg | – | 66% | 6.66
NC(=O)c1cnc(N2CCCC2)c2c1[nH]c1ccc(F)cc12 | 6.64 | > 50 | – | – | – | – | – | –
CCCNc1ncc(C(N)=O)c2[nH]c3ccc(F)cc3c12 | 7.17 | > 50 | – | – | – | – | – | –
CNc1ncc(C(N)=O)c2[nH]c3ccc(F)cc3c12 | 6.68 | > 50 | – | – | – | – | – | –
Cn1cc(-c2ccc3c(c2)[nH]c2c(C(N)=O)cnc(N[C@@H](C4CC4)C(F)(F)F)c23)cn1 | 8.05 | – | – | 6.28 | – | – | – | 5.72
CCC(Nc1ncc(C(N)=O)c2[nH]c3cc(-c4cnn(C)c4)ccc3c12)C1CC1 (stereo unspecified) | 8.70 | > 50 | – | 7.35 | – | – | – | 6.77
C[C@H](Nc1ncc(C(N)=O)c2[nH]c3cc(-c4ccc(N)nn4)ccc3c12)C(C)(C)C | 8.00 | > 50 | – | – | – | – | – | –
NC(=O)c1cnc(NC2CCCCC2)c2c1[nH]c1cc(-c3cn[nH]c3)ccc12 | 7.89 | > 50 | – | – | – | – | – | –
NC(=O)c1cnc(NC2CCCCC2)c2c1[nH]c1cc(Cl)ccc12 | 7.64 | > 50 | – | – | – | – | – | –
CC(C)Nc1ncc(C(N)=O)c2[nH]c3ccc(F)cc3c12 | 7.00 | > 50 | – | – | – | – | – | –

SMILES | pIC50 [1] | Ratio IC50 [2] | inhibition at 10 µM (CYP2C9) | pIC50 [3] | clearance [4] | pIC50 [5] | inhibition at 10 µM (CYP3A4) | pIC50 [6]
NC(=O)c1cnc(NC2CCCCC2)c2c1[nH]c1ccc(-c3ccccc3)cc12 | 6.74 | > 50 | – | – | – | – | – | –
CC(C)CNc1ncc(C(N)=O)c2[nH]c3ccc(F)cc3c12 | 7.13 | > 50 | – | – | – | – | – | –
Cn1cc(-c2ccc3[nH]c4c(C(N)=O)cnc(NC5CCCCC5)c4c3c2)cn1 | 7.89 | > 50 | – | – | – | – | – | –
NC(=O)c1cnc(NC2CCCCC2)c2c1[nH]c1cccc(Cl)c12 | 6.96 | > 50 | – | – | – | – | – | –
CCCCNc1ncc(C(N)=O)c2[nH]c3ccc(F)cc3c12 | 7.31 | > 50 | – | – | – | – | – | –
NC(=O)c1cnc(N2CCCCC2)c2c1[nH]c1ccc(F)cc12 | 6.72 | > 50 | – | – | – | – | – | –
NC(=O)c1cnc(NC2CCCC2)c2c1[nH]c1ccc(F)cc12 | 7.29 | > 50 | – | – | – | – | – | –
NC(=O)c1cnc(N[C@H](C2CC2)C(F)(F)F)c2c1[nH]c1cc(-c3cn[nH]c3)ccc12 | 9.00 | – | 61% | 7.49 | 21 mL/min/kg | – | 68% | 6.66
NC(=O)c1cnc(N[C@H](C2CC2)C(F)(F)F)c2c1[nH]c1cc(-c3ccc(N4CCS(=O)(=O)CC4)nn3)ccc12 | 8.70 | > 50 | – | 6.92 | 54 mL/min/kg | – | – | 6.80
NC(=O)c1cnc(NC2CCCCC2)c2c1[nH]c1ccccc12 | 7.23 | > 50 | – | – | – | – | – | –
C[C@@H](Nc1ncc(C(N)=O)c2[nH]c3ccc(F)cc3c12)C(C)(C)C | 6.68 | > 50 | – | – | – | – | – | –
NC(=O)c1cnc(NC2CCC2)c2c1[nH]c1ccc(F)cc12 | 7.08 | > 50 | – | – | – | – | – | –
NC(=O)c1cnc(NC2CCCCCC2)c2c1[nH]c1ccc(F)cc12 | 7.72 | > 50 | – | – | – | – | – | –
NC(=O)c1cnc(NC2CCCCC2)c2c1[nH]c1cc(-c3ccccc3)ccc12 | 7.15 | > 50 | – | – | – | – | – | –
CCN(c1ncc(C(N)=O)c2[nH]c3ccc(F)cc3c12)C1CCCCC1 | 5.57 | > 50 | – | – | – | – | – | –
CC(C)[C@@H](Nc1ncc(C(N)=O)c2[nH]c3cc(-c4cnn(C)c4)ccc3c12)C(F)(F)F | 8.52 | > 50 | – | – | – | – | – | 6.25
NC(=O)c1cnc(NC(C2CC2)C2CC2)c2c1[nH]c1cc(-c3cccnn3)ccc12 | 8.70 | > 50 | – | 7.55 | – | – | – | 6.57
CC(C)C(Nc1ncc(C(N)=O)c2[nH]c3cc(-c4cnn(C)c4)ccc3c12)C1CC1 (stereo unspecified) | 8.52 | > 50 | – | 7.02 | – | – | – | 6.68
NC(=O)c1cnc(NC2CCCCC2)c2c1[nH]c1cc(-c3ccn[nH]3)ccc12 | – | > 50 | – | – | – | – | – | –
C[C@H](Nc1ncc(C(N)=O)c2[nH]c3cc(-c4ccnc(N)n4)ccc3c12)C(C)(C)C | 7.92 | > 50 | – | – | – | – | – | –
NC(=O)c1cnc(NC2CCCCC2)c2c1[nH]c1cc(-c3cc[nH]n3)ccc12 | 7.64 | – | – | – | – | – | – | –
